Results from patent publication US20040023961A1, “Aryl ureas with raf kinase and angiogenisis inhibiting activity” (BAYER CORPORATION, priority 2002, published 2004).

What was measured:
[1] = test system: neovascularization of the joint; conditions: rat collagen arthritis model; Peacock et al. 1992; cited from earlier work
[2] = biological target: Flk-1 (Mus musculus, UniProt P35918); assay: In Vitro Flk-1 ELISA Assay; assay type: biochemical, murine; conditions: poly-Glu-Tyr coated plates, 3.3 μM ATP
Sequence of Flk-1 (P35918 20-1345): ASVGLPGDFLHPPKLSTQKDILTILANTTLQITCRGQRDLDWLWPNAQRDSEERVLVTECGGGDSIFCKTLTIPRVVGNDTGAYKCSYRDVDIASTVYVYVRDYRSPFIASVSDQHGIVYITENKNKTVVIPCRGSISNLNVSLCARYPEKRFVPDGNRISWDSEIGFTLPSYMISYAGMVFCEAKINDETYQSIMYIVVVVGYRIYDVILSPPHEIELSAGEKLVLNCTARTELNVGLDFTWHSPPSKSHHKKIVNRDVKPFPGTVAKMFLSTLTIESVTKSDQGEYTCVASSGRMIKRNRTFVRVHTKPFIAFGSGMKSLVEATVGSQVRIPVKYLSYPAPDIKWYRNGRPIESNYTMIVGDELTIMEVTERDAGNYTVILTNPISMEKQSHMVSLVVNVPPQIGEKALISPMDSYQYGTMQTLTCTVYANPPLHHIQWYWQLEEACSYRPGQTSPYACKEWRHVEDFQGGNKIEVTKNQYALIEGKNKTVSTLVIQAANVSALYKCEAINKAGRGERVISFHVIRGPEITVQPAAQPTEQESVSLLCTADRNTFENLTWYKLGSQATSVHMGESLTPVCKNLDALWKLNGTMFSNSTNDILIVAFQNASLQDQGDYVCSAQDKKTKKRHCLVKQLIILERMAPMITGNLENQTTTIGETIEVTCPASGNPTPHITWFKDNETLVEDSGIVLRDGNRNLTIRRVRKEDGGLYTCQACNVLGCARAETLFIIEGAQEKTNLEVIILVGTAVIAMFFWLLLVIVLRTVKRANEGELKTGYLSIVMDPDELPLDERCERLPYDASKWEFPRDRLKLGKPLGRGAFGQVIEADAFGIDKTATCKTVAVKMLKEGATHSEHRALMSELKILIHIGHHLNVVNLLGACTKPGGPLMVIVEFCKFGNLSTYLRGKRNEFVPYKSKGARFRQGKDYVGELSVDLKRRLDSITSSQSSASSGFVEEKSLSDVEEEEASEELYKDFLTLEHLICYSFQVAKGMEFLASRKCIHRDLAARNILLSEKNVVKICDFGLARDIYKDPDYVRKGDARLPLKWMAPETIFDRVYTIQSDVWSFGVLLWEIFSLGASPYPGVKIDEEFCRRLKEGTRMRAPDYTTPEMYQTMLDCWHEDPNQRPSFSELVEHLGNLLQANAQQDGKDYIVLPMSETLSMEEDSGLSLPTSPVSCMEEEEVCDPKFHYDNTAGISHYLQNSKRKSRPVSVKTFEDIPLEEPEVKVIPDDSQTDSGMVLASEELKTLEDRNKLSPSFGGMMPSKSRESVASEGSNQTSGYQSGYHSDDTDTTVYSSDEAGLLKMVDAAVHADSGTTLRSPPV
Experimental: In Vitro Flk-1 ELISA Assay
The Flk-1 ELISA assay was performed on 96-well Costar 9018 high-binding plates coated overnight with poly-Glu-Tyr (Sigma #P 0275). After coating, plates were washed with 20 mM HEPES pH=7.5, 150 mM NaCl, 0.1% Tween-20. These plates were then blocked with Blocking Buffer (20 mM HEPES pH=7.5, 150 mM NaCl, 1% BSA, 0.1% Tween-20) for 1 hr at room temperature on a plate shaker. After washing, the reaction was prepared using 20 mM HEPES pH=7.5, 100 mM KCl, 10 mM MgCl2, 3 mM MnCl2 0.05% glycerol, 0.005% Triton X-100, 1 mM BME and 3.3 μM ATP. The assay was initiated with Flk-1 giving a final enzyme concentration of 50 ng/well.
The reaction was incubated at room temperature for 1 hr on a plate shaker and was stopped by washing the plate. The primary antibody incubation step was for 1 hour at room temperature using PT66 phosphotyrosine antibody (Sigma 1:5000 dilution). After washing, the plate was then incubated (1 hr room temp) with the secondary antibody solution of anti-mouse HRP-conjugated antibody (Amersham 1:5000 dilution). After another wash step, plates were developed using 100 μL TMB substrate solution (KPL) and then quenched with KPL stop solution. These quenched plates were read at 450 nm on a Molecular Devices spectrophotomer plate reader. For IC50 generation, compounds were added prior to the enzyme initiation. […]

Row | IC50 [2] [nM] | SMILES | neovascularization of the joint [1]
1 | – | CO[C@@H]1[C@H](OC(=O)NC(=O)CCl)CC[C@]2(CO2)[C@H]1[C@@]1(C)O[C@@H]1CC=C(C)C [AGM-170] | prevent neovascularization of the joint
2 | < 1000 | Cc1ccc(-n2nc(C(C)(C)C)cc2NC(=O)Nc2ccc(OCCN3CCOCC3)c3ccccc23)cc1 [{[3-(tert-butyl)-1-(4-methylphenyl)pyrazol-5-yl]amino}-N-[4-(2-morpholin-4-ylethoxy)naphthyl]carboxamide] | –
